{"source": "patent US20170216328A1", "about": "“METHODS AND COMPOSITIONS FOR MICROBIOME ALTERATION” (Ritter Pharmaceuticals, Inc., priority 2014, published 2017)", "tested_on": "Bifidobacterium species and strains", "assay": "Comparative growth of Bifidobacterium species and strains in scratch MRS with 2% carbohydrate", "assay_type": "cell-based", "method": "The objective of the study was to determine the ability of various Bifidobacterium species and strains to grow on galactooligosaccharides\nThe growth of Lactobacillus and Bifidobacterium strains was evaluated in scratch MRS (Table 16) supplemented with 2% of a carbohydrate solution. The carbohydrates used in the experiments were: Glucose—Fisher; Lactose—Fisher; GOS1-95% GOS purity from Inalco SPA—Provided by Ritter Pharmaceuticals; GOS2-90% GOS purity from GTC—provided by Ritter Pharmaceuticals.\nCarbohydrate stock solutions were filter sterilized and then added to either a scratch MRS formulation (Table 16), or a semisynthetic medium (Table 17).\nLactobacillus and Bifidobacterium cultures were propagated in MRS broth overnight, and then transferred once through the test medium. For growth experiments, cultures were inoculated into the MRS scratch medium containing one of the 4 carbohydrates to be examined. Growth was monitored either: **automatically, using a FLUOStar OPTIMA microtiter plate reader to monitor the change in absorbance (A600) as a function of the time. The strains were incubated at 37 C aerobically for these experiments; or ** manually, using a standard spectrophotometer to monitor the change in OD600 nm over time, in 5 ml liquid culture tubes. These cultures were incubated anaerobically at 37° C. in a COY anaerobic chamber, flushed with anaerobic gas. […]", "data": [{"smiles": "OC[C@H]1O[C@@H](O[C@H]2[C@H](O)[C@@H](O)C(O)O[C@@H]2CO)[C@H](O)[C@@H](O)[C@H]1O", "note": "(stereo partly shown) [lactose]", "values": [{"measurement": "Growth of Bifidobacterium strains on lactose", "result": "none of the Bifidobacterium strains used in these experiments grew on lactose, except for B. pseudolongum"}]}]}
